Test results: patent publication US6905841B2, “Enzymatic substrates for detecting Pseudomonas aeruginas” (Biomerieux S.A., priority 1999, dated 2005)
Where two headings read alike, the source gives them in different places.

How the values were obtained:
β-alanine aminopeptidase [1] = details: Salmonella arizonae; 1 strain tested; read after 22 to 24 hours
β-alanine aminopeptidase [2] = details: Pseudomonas stutzeri; 3 strains tested; read after 22 to 24 hours
β-alanine aminopeptidase [3] = details: Klebsiella pneumoniae; 3 strains tested; read after 22 to 24 hours
β-alanine aminopeptidase [4] = details: Providencia stuartii; 1 strain tested; read after 22 to 24 hours
β-alanine aminopeptidase [5] = details: Enterobacter aerogenes; 2 strains tested; read after 22 to 24 hours
β-alanine aminopeptidase [6] = assay: APIZYM-type test strips with β-alanyl-β-naphthylamide; type: cell-based; details: Serratia marcescens; five strains
β-alanine aminopeptidase [7] = assay: as above; type: cell-based; details: Actinobacillus ureae; 1 strain
β-alanine aminopeptidase [8] = assay: as above; type: cell-based; details: Pseudomonas luteola; five strains
β-alanine aminopeptidase [9] = assay: as above; type: cell-based; details: Providencia stuartii; five strains
β-alanine aminopeptidase [10] = assay: as above; type: cell-based; details: Bordetella bronchiseptica; five strains
β-alanine aminopeptidase [11] = assay: as above; type: cell-based; details: Chryseobacterium indologenes; five strains
β-alanine aminopeptidase [12] = assay: as above; type: cell-based; details: Ochrobactrum anthropi; five strains

Molecule: NCCC(=O)c1c(N)cc(Cl)c(O)c1Cl
- Number of negative results (β-alanine aminopeptidase [1]): 1
- Number positive results (β-alanine aminopeptidase [1]): 0
- Number of negative results (β-alanine aminopeptidase [2]): 3
- Number positive results (β-alanine aminopeptidase [2]): 0
- Number of negative results (β-alanine aminopeptidase [3]): 3
- Number positive results (β-alanine aminopeptidase [3]): 0
- Number of negative results (β-alanine aminopeptidase [4]): 1
- Number positive results (β-alanine aminopeptidase [4]): 0
- Number of negative results (β-alanine aminopeptidase [5]): 2
- Number positive results (β-alanine aminopeptidase [5]): 0

Molecule: β-alanyl-β-naphthylamide
- β-alanine aminopeptidase activity, result (β-alanine aminopeptidase [6]): negative
- β-alanine aminopeptidase activity, result (β-alanine aminopeptidase [7]): negative
- β-alanine aminopeptidase activity, result (β-alanine aminopeptidase [8]): negative
- β-alanine aminopeptidase activity, result (β-alanine aminopeptidase [9]): negative
- β-alanine aminopeptidase activity, result (β-alanine aminopeptidase [10]): negative
- β-alanine aminopeptidase activity, result (β-alanine aminopeptidase [11]): negative
- β-alanine aminopeptidase activity, result (β-alanine aminopeptidase [12]): positive
